Source: patent US8852928B2, “LexA-based chemical-inducible gene expression system for use in transgenic animals” (Temasek Life Sciences Laboratory Limited, priority 2007, dated 2014)

Molecular target: T1, LexPR transactivator (Homo sapiens, UniProt P06401)
T1 construct: expressed in transfected cells; host or cells: germline-transgenic zebrafish (Danio rerio) carrying the Ds transposon driver cassette pDs(krt8:LPR-LOP:G4) or derivatives
T1 sequence (P06401 640-914): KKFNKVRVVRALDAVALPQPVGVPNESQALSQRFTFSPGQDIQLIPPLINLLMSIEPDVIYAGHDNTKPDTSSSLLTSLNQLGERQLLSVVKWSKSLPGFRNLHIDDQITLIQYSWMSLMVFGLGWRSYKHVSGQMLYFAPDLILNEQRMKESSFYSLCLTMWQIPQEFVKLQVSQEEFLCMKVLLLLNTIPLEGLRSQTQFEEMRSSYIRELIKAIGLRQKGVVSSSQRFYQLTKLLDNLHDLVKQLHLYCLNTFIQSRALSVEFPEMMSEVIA
Test: Time required to switch off EGFP reporter expression after mifepristone withdrawal
Format: in vivo, zebrafish
Design: key to Reporter expression, RU486 incubation / Reporter expression after RU486 withdrawal / Reporter expression, continuous induction (time of RU486 incubation): +: Fluorescence signal is similar to the control.; ±: Fluorescence signal is obviously weaker that in control.; −: No EGFP fluorescence (except autofluorescence)observed using the fluorescent stereomicroscope
Text: To avoid confusion, the corresponding developmental times are indicated. A Nikon SMZ1600 fluorescent stereomicroscope was used for rough estimation of the EGFP fluorescence.

Structure (SMILES): CC#C[C@]1(O)CC[C@H]2[C@@H]3CCC4=CC(=O)CCC4=C3[C@@H](c3ccc(N(C)C)cc3)C[C@@]21C [mifepristone]
- Reporter expression, continuous induction (time of RU486 incubation) (10 nM, 24-156 h incubation, 60-192 hpf): +
- Reporter expression, continuous induction (time of RU486 incubation) (10 nM, 1 h incubation): −
- Reporter expression, continuous induction (time of RU486 incubation) (10 nM, 12 h incubation): ±
- Reporter expression, continuous induction (time of RU486 incubation) (10 nM, 13 h incubation, 49hpf): ±
- Reporter expression, continuous induction (time of RU486 incubation) (10 nM, 24 h incubation, 60hpf): +
- Reporter expression, RU486 incubation (100 nM, 1 hour RU486 incubation - withdrawal, at 1 h incubation, 37hpf): −
- Reporter expression after RU486 withdrawal (100 nM, 1 hour RU486 incubation, 12 h after withdrawal, 49hpf): +
- Reporter expression after RU486 withdrawal (100 nM, 1 hour RU486 incubation, 24 h after withdrawal, 61hpf): +
- Reporter expression after RU486 withdrawal (100 nM, 1 hour RU486 incubation, 48 h after withdrawal, 85hpf): −
- Reporter expression after RU486 withdrawal (100 nM, 1 hour RU486 incubation, 72 h after withdrawal, 109hpf): −
- Reporter expression after RU486 withdrawal (100 nM, 1 hour RU486 incubation, 96 h after withdrawal, 133hpf): −
- Reporter expression after RU486 withdrawal (100 nM, 1 hour RU486 incubation, 120 h after withdrawal, 157hpf): −
- Reporter expression after RU486 withdrawal (100 nM, 1 hour RU486 incubation, 144 h after withdrawal, 181hpf): −
- Minimal time after RU486 withdrawal to turn off the reporter expression (100 nM, 1 hour induction): 2 days
- Reporter expression, RU486 incubation (100 nM, 12 hours RU486 incubation - withdrawal, at 12 h incubation, 48hpf): +
- Reporter expression after RU486 withdrawal (100 nM, 12 hours RU486 incubation, 12 h after withdrawal, 60hpf): +
- Reporter expression after RU486 withdrawal (100 nM, 12 hours RU486 incubation, 24 h after withdrawal, 72hpf): ±
- Reporter expression after RU486 withdrawal (100 nM, 12 hours RU486 incubation, 48 h after withdrawal, 96hpf): ±
- Reporter expression after RU486 withdrawal (100 nM, 12 hours RU486 incubation, 72 h after withdrawal, 120hpf): −
- Reporter expression after RU486 withdrawal (100 nM, 12 hours RU486 incubation, 96 h after withdrawal, 144hpf): −
- Reporter expression after RU486 withdrawal (100 nM, 12 hours RU486 incubation, 120 h after withdrawal, 168hpf): −
- Reporter expression after RU486 withdrawal (100 nM, 12 hours RU486 incubation, 144 h after withdrawal, 192hpf): −
- Minimal time after RU486 withdrawal to turn off the reporter expression (100 nM, 12 hours induction): 3 days
- Reporter expression, continuous induction (time of RU486 incubation) (100 nM, 24-156 h incubation, 60-192 hpf): +
- Reporter expression, continuous induction (time of RU486 incubation) (100 nM, 1 h incubation): −
- Reporter expression, continuous induction (time of RU486 incubation) (100 nM, 12 h incubation): +
- Reporter expression, continuous induction (time of RU486 incubation) (100 nM, 13 h incubation, 49hpf): +
- Reporter expression, continuous induction (time of RU486 incubation) (100 nM, 24 h incubation, 60hpf): +
- Reporter expression, RU486 incubation (1 μM, 1 hour RU486 incubation - withdrawal, at 1 h incubation, 37hpf): −
- Reporter expression after RU486 withdrawal (1 μM, 1 hour RU486 incubation, 12 h after withdrawal, 49hpf): +
- Reporter expression after RU486 withdrawal (1 μM, 1 hour RU486 incubation, 24 h after withdrawal, 61hpf): +
- Reporter expression after RU486 withdrawal (1 μM, 1 hour RU486 incubation, 48 h after withdrawal, 85hpf): +
- Reporter expression after RU486 withdrawal (1 μM, 1 hour RU486 incubation, 72 h after withdrawal, 109hpf): ±
- Reporter expression after RU486 withdrawal (1 μM, 1 hour RU486 incubation, 96 h after withdrawal, 133hpf): ±
- Reporter expression after RU486 withdrawal (1 μM, 1 hour RU486 incubation, 120 h after withdrawal, 157hpf): −
- Reporter expression after RU486 withdrawal (1 μM, 1 hour RU486 incubation, 144 h after withdrawal, 181hpf): −
- Minimal time after RU486 withdrawal to turn off the reporter expression (1 μM, 1 hour induction): 5 days
- Reporter expression, RU486 incubation (1 μM, 12 hours RU486 incubation - withdrawal, at 12 h incubation, 48hpf): +
- Reporter expression after RU486 withdrawal (1 μM, 12 hours RU486 incubation, 12 h after withdrawal, 60hpf): +
- Reporter expression after RU486 withdrawal (1 μM, 12 hours RU486 incubation, 24 h after withdrawal, 72hpf): +
- Reporter expression after RU486 withdrawal (1 μM, 12 hours RU486 incubation, 48 h after withdrawal, 96hpf): +
- Reporter expression after RU486 withdrawal (1 μM, 12 hours RU486 incubation, 72 h after withdrawal, 120hpf): ±
- Reporter expression after RU486 withdrawal (1 μM, 12 hours RU486 incubation, 96 h after withdrawal, 144hpf): ±
- Reporter expression after RU486 withdrawal (1 μM, 12 hours RU486 incubation, 120 h after withdrawal, 168hpf): ±
- Reporter expression after RU486 withdrawal (1 μM, 12 hours RU486 incubation, 144 h after withdrawal, 192hpf): −
- Minimal time after RU486 withdrawal to turn off the reporter expression (1 μM, 12 hours induction): 6 days
- Reporter expression, continuous induction (time of RU486 incubation) (1 μM, 24-156 h incubation, 60-192 hpf): +
- Reporter expression, continuous induction (time of RU486 incubation) (1 μM, 1 h incubation): −
- Reporter expression, continuous induction (time of RU486 incubation) (1 μM, 12 h incubation): +
- Reporter expression, continuous induction (time of RU486 incubation) (1 μM, 13 h incubation, 49hpf): +
- Reporter expression, continuous induction (time of RU486 incubation) (1 μM, 24 h incubation, 60hpf): +
- Duration of EGFP fluorescence in mifepristone-free water (following 12 hours treatment with 1 μM): 5 days
